In the experiment the test system is HBsAg secretion, HepG2-Clone42 cells (Tet-inducible HBV-expressing, HBV ayw strain). Briefly: HBsAg assay (HBsAg ELISA, secreted HBV sAg from HepG2-Clone42 cells). The class given is cell-based. Put shortly: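 HepG2-Clone42 cells (Tet-inducible, integrated 1.3-mer HBV ayw) treated 24 h post-seeding with five-fold serial compound dilutions, 0.5% DMSO final. Secreted HBsAg measured by ELISA (A450); EC50 for 50% reduction vs DMSO control after background subtraction, four-parameter logistic fit.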
Background: An ELISA detects its analyte on a solid surface through an enzyme-linked reagent.

Where [1] appears, read: Hepatitis B virus, read-out: HBsAg (nM), EC50 = concentration at which HBsAg secretion was reduced 50% compared to DMSO control.
Where [2] appears, read: read-out: HBsAg, EC50 = concentration at which HBsAg secretion was reduced 50% compared to DMSO control.

Results on 15 molecules are retold here after patent publication US10975078B2, “Fused indazole pyridone compounds as antivirals” (priority 2017, dated 2021).

Where two headings read alike, the source gives them in different places.

Turning to `CC(C)(C)C1Cn2nc3c(OCC(F)F)cccc3c2-c2cc(=O)c(C(=O)O)cn21` (racemic) [Example 2.10, 6-(tert-butyl)-10-(2,2-difluoroethoxy)-2-oxo-6,7-dihydro-2H-pyrido[2′,1′:3,4]pyrazino[1,2-b]indazole-3-carboxylic Acid], the EC50 under setting [1] was less than 1 nM.

As to `CC(C)(C)C1Cn2nc3c(OC4CCOC4)cccc3c2-c2cc(=O)c(C(=O)O)cn21` (racemic) [Example 2.37, 6-(tert-butyl)-2-oxo-10-((tetrahydrofuran-3-yl)oxy)-6,7-dihydro-2H-pyrido[2′,1′:3,4]pyrazino[1,2-b]indazole-3-carboxylic Acid], the EC50 under setting [1] was in the range of 1 to 100 nM.

As for `COCCOc1cccc2c3n(nc12)C1CCC(C)(C)C1n1cc(C(=O)O)c(=O)cc1-3` (single isomer, unassigned) [Example 6.2-II, 12-(2-methoxyethoxy)-3,3-dimethyl-7-oxo-2,3,3a,14a-tetrahydro-1H,7H-cyclopenta[5,6]pyrido[2′,1′:3,4]pyrazino[1,2-b]indazole-6-carboxylic Acid], the EC50 under setting [2] is less than 1 nM.

On to `CCOc1cccc2c3n(nc12)CC(C(C)(C)C)n1cc(C(=O)O)c(=O)cc1-3` (racemic) [Example 2.42, 6-(tert-butyl)-10-ethoxy-2-oxo-6,7-dihydro-2H-pyrido[2′,1′:3,4]pyrazino[1,2-b]indazole-3-carboxylic Acid], for which the EC50 under setting [1] is less than 1 nM.

In the case of `CC(C)COc1cccc2c3n(nc12)CC(C(C)(C)C)n1cc(C(=O)O)c(=O)cc1-3` (racemic) [Example 2.16, 6-(tert-butyl)-10-isobutoxy-2-oxo-6,7-dihydro-2H-pyrido[2′,1′:3,4]pyrazino[1,2-b]indazole-3-carboxylic Acid], the EC50 under setting [1] is less than 1 nM.

Consider `CC1(C)CCC2C1n1cc(C(=O)O)c(=O)cc1-c1c3cccc(F)c3nn12` (single isomer, unassigned) [Example 5.2-I, 12-fluoro-3,3-dimethyl-7-oxo-2,3,3a,14a-tetrahydro-1H,7H-cyclopenta[5,6]pyrido[2′,1′:3,4]pyrazino[1,2-b]indazole-6-carboxylic Acid], for which the EC50 under setting [2] lay in the range of 1 to 100 nM.

Turning to `COc1cccc2c3n(nc12)CC(C(C)(C)CO)n1cc(C(=O)O)c(=O)cc1-3` (single isomer, unassigned) [Example 3.1-II, 6-(1-hydroxy-2-methylpropan-2-yl)-10-methoxy-2-oxo-6,7-dihydro-2H-pyrido[2′,1′:3,4]pyrazino[1,2-b]indazole-3-carboxylic Acid], under setting [2], the EC50 is 1 to 100 nM.

Regarding `COCCCOc1cccc2c3n(nc12)C1CCC(C)(C)C1n1cc(C(=O)O)c(=O)cc1-3` (single isomer, unassigned) [Example 6.1-II, 12-(3-methoxypropoxy)-3,3-dimethyl-7-oxo-2,3,3a,14a-tetrahydro-1H,7H-cyclopenta[5,6]pyrido[2′,1′:3,4]pyrazino[1,2-b]indazole-6-carboxylic Acid], the EC50 under setting [2] was less than 1 nM.

As for `CC(C)(C)C1Cn2nc3c(OC[C@@H]4CCC(=O)N4)cccc3c2-c2cc(=O)c(C(=O)O)cn21` (single isomer, unassigned) [Example 2.33-II], the EC50 under setting [2] is greater than 100 nM.

Turning to `CC(C)(C)C1Cn2nc3c(OC[C@H]4CCC(=O)N4)cccc3c2-c2cc(=O)c(C(=O)O)cn21` (single isomer, unassigned) [Example 2.34-II], the EC50 under setting [2] was greater than 100 nM.

As for `CC(C)(C)C1Cn2nc3ccccc3c2-c2cc(=O)c(C(=O)O)cn21` (single isomer, unassigned) [Example 1.5-II, 6-(tert-butyl)-2-oxo-6,7-dihydro-2H-pyrido[2′,1′:3,4]pyrazino[1,2-b]indazole-3-carboxylic acid], under setting [2], the EC50 was greater than 100 nM.

Regarding `CCOC(=O)c1cn2c(cc1=O)-c1c3cccc(OCCCOC)c3nn1CC2C(C)(C)C` (racemic) [Example 2.1i, ethyl 6-(tert-butyl)-10-(3-methoxypropoxy)-2-oxo-6,7-dihydro-2H-pyrido[2′,1′:3,4]pyrazino[1,2-b]indazole-3-carboxylate], the EC50 under setting [1] fell in the range of 1 to 100 nM.

As to `COCC(C)(C)C1Cn2nc3c(OC)cccc3c2-c2cc(=O)c(C(=O)O)cn21` (single isomer, unassigned) [Example 4.1-I, 10-methoxy-6-(1-methoxy-2-methylpropan-2-yl)-2-oxo-6,7-dihydro-2H-pyrido[2′,1′:3,4]pyrazino[1,2-b]indazole-3-carboxylic Acid], the EC50 under setting [2] was less than 1 nM.

`COCCCOc1cccc2c3n(nc12)CC(C(C)(C)C)n1cc(C(=O)O)c(=O)c(F)c1-3` (single isomer, unassigned) [Example 8.1-I, 6-(tert-butyl)-1-fluoro-10-(3-methoxypropoxy)-2-oxo-6,7-dihydro-2H-pyrido[2′,1′:3,4]pyrazino[1,2-b]indazole-3-carboxylic Acid]: the EC50 under setting [2] is greater than 100 nM.

In the case of `CC(C)(C)C1Cn2nc3c(OCCOC(F)(F)F)cccc3c2-c2cc(=O)c(C(=O)O)cn21` (racemic) [Example 2.9, 6-(tert-butyl)-2-oxo-10-(2-(trifluoromethoxy)ethoxy)-6,7-dihydro-2H-pyrido[2′,1′:3,4]pyrazino[1,2-b]indazole-3-carboxylic Acid], under setting [1], the EC50 is less than 1 nM.
